Measured values from patent publication US12319655B2, “RAF kinase inhibitors and methods of use thereof” (Deciphera Pharmaceuticals, LLC, priority 2021, dated 2025).

Assays:
[1] = biological target: A-Raf kinase (SEQ. ID No: 1) (Homo sapiens (Human), UniProt P10398, Y301D/Y302D); assay: Biochemical Assay for A-Raf (1); conditions: Table J, assay version (1); read-out: ARAF (1) IC50
Method in brief: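 IC50 values were derived by four-parameter sigmoidal fitting of percent inhibition, calculated from reaction rates over the 4–5 h window. Absorbance at 340 nm was tracked for 6 h at 30 °C via coupled PK/LDH NADH depletion. Conditions: 1 mM ATP, 30.1 nM MEK substrate, 5.55 nM A-Raf (Y301D/Y302D), Tris pH 7.5, 1% DMSO.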

[2] = biological target: B-Raf kinase (SEQ. ID NO: 2) (Homo sapiens (Human), UniProt P15056); assay: Biochemical Assay for B-Raf (1); conditions: Table J, assay version (1); read-out: BRAF (1) IC50
Sequence of B-Raf kinase (SEQ. ID NO: 2) (P15056 416-766): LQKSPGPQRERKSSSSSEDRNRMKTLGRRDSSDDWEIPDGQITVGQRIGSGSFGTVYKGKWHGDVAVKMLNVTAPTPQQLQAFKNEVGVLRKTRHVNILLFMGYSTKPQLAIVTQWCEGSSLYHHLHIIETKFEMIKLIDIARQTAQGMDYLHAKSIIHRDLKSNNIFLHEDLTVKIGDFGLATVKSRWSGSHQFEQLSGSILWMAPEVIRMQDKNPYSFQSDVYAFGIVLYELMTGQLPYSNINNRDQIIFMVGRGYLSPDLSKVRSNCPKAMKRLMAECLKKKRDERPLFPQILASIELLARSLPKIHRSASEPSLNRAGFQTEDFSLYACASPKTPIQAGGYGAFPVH
Method in brief: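 IC50 derived by four-parameter sigmoidal fit of percent inhibition, normalised to uninhibited and reference-inhibitor controls, using reaction rates over 4–5 h. Coupled spectrophotometric readout (NADH loss at 340 nm, 6 h, 30° C.); 1 mM ATP, 30.1 nM MEK, 0.13 nM B-Raf, pH 7.5 Tris buffer, 1% DMSO.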

[3] = biological target: C-Raf kinase (SEQ. ID NO: 3) (Homo sapiens (Human), UniProt P04049, Y340D/Y341D); assay: Biochemical Assay for C-Raf (1); conditions: Table J, assay version (1); read-out: CRAF (1) IC50
Sequence of C-Raf kinase (SEQ. ID NO: 3) (P04049 307-648 Y340D/Y341D): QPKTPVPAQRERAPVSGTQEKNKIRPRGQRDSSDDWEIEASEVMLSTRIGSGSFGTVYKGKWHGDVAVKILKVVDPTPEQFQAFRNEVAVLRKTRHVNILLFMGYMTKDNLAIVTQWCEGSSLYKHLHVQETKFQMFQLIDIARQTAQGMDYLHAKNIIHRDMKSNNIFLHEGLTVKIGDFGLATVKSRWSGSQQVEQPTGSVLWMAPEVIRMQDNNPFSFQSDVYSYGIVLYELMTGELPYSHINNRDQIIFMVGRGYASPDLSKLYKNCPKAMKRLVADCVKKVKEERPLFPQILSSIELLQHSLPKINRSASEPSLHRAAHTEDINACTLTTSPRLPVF
Method in brief: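 IC50 values come from a four-parameter fit of percent inhibition, using the reaction rate over 4–5 h of a 6 h continuous 340 nm read at 30 °C. The enzyme mix was C-Raf 0.43 nM, MEK substrate 30.1 nM and ATP 1 mM, in a PK/LDH NADH-coupled format in Tris pH 7.5 with 1% DMSO.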

A375 cells = assay: A375 Cell Proliferation Assay (1); format: cell-based; conditions: Homo sapiens, A-375
Protocol: A375 Cell Proliferation Assay (1)
(§1) A375 cells (catalog (#CRL-1619) are obtained from the American Type Culture Collect (ATTC, Manassas, VA). Briefly, cells were grown in DMEM High Glucose supplemented with 10% characterized fetal bovine serum (Invitrogen, Carlsbad, CA) and 1% Penicillin/Streptomycin/L-Glutamine at 37° C., 5% CO2, and 95% humidity. Cells are expanded until reaching 70-95% confluency at which point they are sub-cultured or harvested for assay use. A serial dilution of test compound is dispensed into a 96-well black clear bottom plate in triplicate. Two thousand five hundred cells are added per well in 200 μL complete growth medium in the 96-well plate. Plates are incubated for 67-72 h at 37° C., 5% CO2, and 95% humidity. At the end of the incubation, 40 μL of a 440 μM solution of resazurin (Sigma, St. Louis, MO) in PBS is added to each well of the plate and plates are incubated for an additional 5-6 h at 37° C., 5% CO2, and 95% humidity. Plates are read on a Synergy2 or equivalent reader (Biotek, Winooski VT) using an excitation of 540 nm and an emission of 600 nm. Data is analyzed using Prism software (GraphPad, San Diego, CA) to calculate IC50 values.

H2405 cells = assay: H2405 Cell Proliferation Assay (1); format: cell-based; conditions: Homo sapiens, NCI-H2405
Protocol: H2405 Cell Proliferation Assay (1)
as §1, with “H2405” for “A375”, “#CRL-5994)” for “(#CRL-1619)”, “RPMI 1640” for “DMEM High Glucose”, “5%” for “10%”, “Three” for “Two”, “thousand” for “thousand five hundred”

Miapaca-2 cells [4] = assay: MiaPaca-2 Cell Proliferation Assay (1); format: cell-based; conditions: Homo sapiens, MIA PaCa-2, single agent, read-out: MiaPaca2 (1) IC50
Protocol: MiaPaca-2 Cell Proliferation Assay (1)
as §1, with “Miapaca-2 cells” for “A375 cells”, “(catalog #CRL-1420)” for “(catalog (#CRL-1619)”, “DMEM” for “DMEM High Glucose”, “Carlsbad, CA), 2.5% New Zealand sourced horse serum” for “Carlsbad, CA)”, “triplicate. Three” for “triplicate. Two”, “thousand” for “thousand five hundred”

WM3928 cells = assay: WM3928 Cell Proliferation Assay (1); format: cell-based
Protocol: WM3928 Cell Proliferation Assay (1)
WM3928 cells (#WM3928-01-0001) are obtained from Rockland Immunochemicals Inc (Gilbertsville, PA). Briefly, cells were grown in MCDB 153 medium (Sigma, #M7403, St. Louis, MO) supplemented with 20% Leibovitz's L-15 (ThermoFisher #11415-064, Waltham, MA), 2% heat inactivated fetal bovine serum (ThermoFisher, #A3840001, Waltham, MA), 5 μg/mL Insulin (Bovine Pancreas) (Sigma, #I0516, St. Louis, MO), 1.68 mM Calcium Chloride (Sigma, #C-34006, St. Louis, MO) and 1% Penicillin/Streptomycin/L-Glutamine (ThermoFisher #10378016, Waltham, MA) at 37° C., 5% CO2, and 95% humidity. Cells are expanded until reaching 70-95% confluency at which point they are subcultured or harvested for assay use. A serial dilution of test compound is dispensed into a 96-well black clear bottom plate in triplicate. Three thousand cells are added per well in 200 μL complete growth medium in the 96-well plate. Plates are incubated for 67-72 hours at 37° C., 5% CO2, and 95% humidity. At the end of the incubation, 40 μL of a 440 μM solution of resazurin (Sigma, #199303, St. Louis, MO) in PBS is added to each well of the plate and plates are incubated for an additional 6-7 hours at 37° C., 5% CO2, and 95% humidity. Plates are read on a Synergy2 or equivalent reader (Biotek, Winooski VT) using an excitation of 540 nm and an emission of 600 nm. Data is analyzed using Prism software (GraphPad, San Diego, CA) to calculate IC50 values.

[5] = biological target: B-Raf (V600E) (SEQ. ID NO: 4) kinase (Homo sapiens (Human), UniProt P15056, V600E); assay: Biochemical Assay for B-Raf (V600E) (1); conditions: Table J, BRAF V600E, assay version (1); read-out: BRAF VE (1) IC50
Sequence of B-Raf (V600E) (SEQ. ID NO: 4) kinase (P15056 416-766 V600E): as the sequence (P15056 416-766) above, with V185E counted along it
Method in brief: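 Serially diluted compounds tested against 0.03 nM enzyme with 30.1 nM MEK substrate and 1 mM ATP (Tris pH 7.5, 15 mM MgCl2), ATP use coupled to NADH loss via PK/LDH. A340 monitored continuously 6 h, 30 °C; IC50 fitted (four-parameter) from the 3–4 h rate versus no-compound and known-inhibitor controls.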

Miapaca-2 cells [6] = assay: MiaPaca-2 Combination Cell proliferation Assay (1) with cobimetinib; format: cell-based; conditions: MiaPaca-2 cell proliferation, read-out: MiaPaca-2 Combo (1) IC50
Protocol: MiaPaca-2 Combination Cell proliferation Assay (1)
Miapaca-2 cells (catalog #CRL-1420) are obtained from the American Type Culture Collect (ATCC, Manassas, VA). Briefly, cells were grown in DMEM supplemented with 10% characterized fetal bovine serum (Invitrogen, Carlsbad, CA), 2.5% New Zealand sourced horse serum and 1% Penicillin/Streptomycin/L-Glutamine at 37° C., 5% CO2, and 95% humidity. Cells are expanded until reaching 70-95% confluency at which point they are subcultured or harvested for assay use. A serial dilution of test compound was dispensed into multiple 96-well black clear bottom plates in triplicate. A serial dilution of complete growth medium containing cobimetinib was prepared at twice the final concentration and 100 μL was dispensed across the test compound titration in triplicate. Three thousand cells are added per well in 100 μL complete growth medium in each 96-well plate. Plates are incubated for 67-72 hours at 37° C., 5% CO2, and 95% humidity. At the end of the incubation, 40 μL of a 440 μM solution of resazurin (Sigma, St. Louis, MO) in PBS is added to each well of the plate and plates are incubated for an additional 5-7 hours at 37° C., 5% CO2, and 95% humidity. Plates are read on a Synergy2 or equivalent reader (Biotek, Winooski VT) using an excitation of 540 nm and an emission of 600 nm. Drug synergy was assessed via BLISS analysis in the Combenefit software (Cancer Research UK Cambridge Institute, Cambridge, UK). Data is analyzed using Prism software (Graphpad, San Diego, CA) to calculate IC50 values. Shifts in test compound IC50 values are reported from top-constrained combination therapy curves.

Sequence of A-Raf kinase (SEQ. ID No: 1) (P10398 other isoform, or with tags, fused parts or gaps Y301D (already in the parent)/Y302D (already in the parent)): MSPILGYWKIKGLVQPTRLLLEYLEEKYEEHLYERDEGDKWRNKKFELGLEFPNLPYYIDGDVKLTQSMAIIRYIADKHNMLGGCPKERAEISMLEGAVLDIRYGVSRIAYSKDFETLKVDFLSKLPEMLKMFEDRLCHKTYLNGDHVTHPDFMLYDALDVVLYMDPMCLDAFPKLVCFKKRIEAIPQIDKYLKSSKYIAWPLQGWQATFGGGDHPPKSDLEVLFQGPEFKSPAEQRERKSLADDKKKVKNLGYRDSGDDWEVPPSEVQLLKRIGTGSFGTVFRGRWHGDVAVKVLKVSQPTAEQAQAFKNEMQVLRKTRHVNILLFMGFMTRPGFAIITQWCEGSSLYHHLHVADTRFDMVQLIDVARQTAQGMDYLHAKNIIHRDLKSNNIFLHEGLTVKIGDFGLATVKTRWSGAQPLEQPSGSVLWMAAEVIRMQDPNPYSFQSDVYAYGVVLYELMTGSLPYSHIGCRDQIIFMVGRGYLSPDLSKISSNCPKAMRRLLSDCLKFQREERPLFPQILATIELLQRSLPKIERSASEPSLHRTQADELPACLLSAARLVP

Row | SMILES | IC50 [1] [µM] | IC50 [2] [µM] | IC50 [3] [µM] | IC50 (A375 cells) [µM] | IC50 (H2405 cells) [µM] | IC50 (Miapaca-2 cells [4]) [µM] | IC50 [5] [µM] | IC50 (Miapaca-2 cells [6]) [µM] | IC50 (WM3928 cells) [µM]
1 | Cc1ccc(NC(=O)c2ccnc(C(C)(C)C#N)c2)cc1-c1cccc(-c2cc(NC(=O)C(C)(C)C)ncn2)c1 [Example 210] | 1 to 10 | 0.5 to 1 | 0.5 to 1 |  |  |  | ≤ 0.1 | 0.1 to 0.5 | 
2 | Cc1ccc(NC(=O)c2cc(C3CC3)n(C)n2)cc1-c1ccnc(-c2ccnc(NC(=O)C3CC3)c2)n1 [Example 236] |  |  |  | 1 to 10 | 0.1 to 0.5 | 1 to 10 |  |  | 0.5 to 1
3 | Cc1ccc(NC(=O)c2cnnc(C3CC3)c2)cc1-c1nccc(-c2ccnc(NC(=O)C3CC3)c2)n1 [Example 272] | 1 to 10 |  |  | 1 to 10 | 0.1 to 0.5 | 1 to 10 |  |  | 0.1 to 0.5

More lines, main results first:

Row | IC50 [1] [µM] | IC50 [2] [µM] | IC50 [3] [µM] | IC50 (A375 cells) [µM] | IC50 (H2405 cells) [µM] | IC50 (Miapaca-2 cells [4]) [µM] | IC50 [5] [µM] | IC50 (Miapaca-2 cells [6]) [µM] | SMILES | IC50 (WM3928 cells) [µM]
4 | 1 to 10 | 0.5 to 1 | 0.1 to 0.5 | 1 to 10 | 1 to 10 |  |  |  | Cc1ccc(NC(=O)c2ccnc(C(F)(F)F)c2)cc1-c1cc(-c2ccnc(N)c2)n(C)c(=O)c1 [Example 53] | 
5 | 1 to 10 |  |  | 0.5 to 1 |  | 1 to 10 |  |  | Cc1ccc(NC(=O)c2ccnc(C(C)(C)C#N)c2)cc1-c1ccnc(-c2ccncc2)c1 [Example 55] | 
6 | 1 to 10 |  |  | 0.1 to 0.5 | ≤ 0.1 | 1 to 10 |  |  | Cc1ccc(NC(=O)c2ccnc(C(F)(F)F)c2)cc1-c1cccc(-c2ccnc(NC(=O)C3CC3)c2)c1 [Example 58] | 0.1 to 0.5
7 | 1 to 10 | 0.1 to 0.5 | 0.1 to 0.5 | 1 to 10 | 1 to 10 |  |  |  | CNc1cc(-c2cccc(-c3cc(NC(=O)c4ccnc(C(C)(C)C#N)c4)cnc3C)c2)ncn1 [Example 227] | 
8 |  |  |  | ≤ 0.1 | 0.1 to 0.5 | 1 to 10 |  | 0.1 to 0.5 | COC(=O)Nc1cc(-c2cncc(-c3cc(NC(=O)c4ccnc(C(C)(F)F)c4)ccc3C)c2)ncn1 [Example 238] | ≤ 0.1
